According to patent US20180200233A1, “COMPOSITIONS FOR PREVENTING CANCERS ASSOCIATED WITH HUMAN PAPILLOMA VIRUSES” (Loma Linda University, priority 2015, published 2018):

Columns and labels:
SiHa cells = assay: MTT cell viability, SiHa cells with doxorubicin or cisplatin; format: cell-based, human; details: 100 μM myricetin, 50 μM spinacine added 4 h prior; compared to negative control
Protocol: FIGS. 3A-E are graphs providing data regarding resistance of HPV^+ SiHa cells to TRAIL-, cisplatin- and […] apoptosis, in the presence and absence of small molecules as disclosed herein. (FIG. 3A) HPV^+ SiHa cells are resistant to TRAIL-induced apoptosis as compared to the human osteosarcoma cell line U2OS. Cells (2×10^4 cells per well) were seeded into a 96-well plate, allowed to incubate overnight, and then treated with indicated concentration of TRAIL in the presence of cycloheximide (5 μg/ml). The viability of cells was measured after overnight incubation using the MTT assay; the viability of cells untreated with TRAIL was set at 100% for each group. (FIG. 3B) The indicated concentrations of three small molecules were added to SiHa cells, and an MTT assay was preformed after overnight incubation. The viability of cells untreated with small molecules was set as 100%. […] Cell viability was measured after overnight incubation using the MTT assay, and the viability of cells untreated with either myricetin or spinacine was set at 100%. […]
The extracellular domain of human TRAIL was cloned into a pTriEx expression plasmid containing N-terminal Hisx6 tag. […] All experiments were repeated at least three times (three biological replicates, carried out on different days), with each experimental group measured in triplicate within each of these individual experiments. […]

[1] = tested on: caspase 3/7 activity in SiHa cells; assay: Caspase 3/7 activity assay in SiHa cells; format: cell-based, human; details: 100 μM myricetin or 50 μM spinacine 4 h, TRAIL 100 ng/ml + cycloheximide, 0-6 h
Protocol: FIGS. 4A-C are graphs showing that myricetin and spinacine (5) increased caspase 3/7 activity in SiHa cells following treatment with TRAIL and chemotherapy drugs. SiHa cells (2×10^4 cells per well) were seeded into a 96-well plate and allowed to incubate overnight, then pre-treated with 100 μM of myricetin or 50 μM of spinacine for 4 h. (FIG. 4A) TRAIL (100 ng/ml), along with cycloheximide (5 μg/ml), (FIG. 4B) cisplatin (50 μM), or (FIG. 4C) doxorubicin (2 μM) were added respectively. Caspase 3/7 activity was measured after 0, 1.5, 3, and 6 hours using the […] assay. Activity at 0 h of treatment was set at 100% for each group. […]
Activation of caspase 3/7 is an essential marker for both extrinsic and intrinsic apoptosis, and can be used to determine whether cell death occurs through the apoptotic pathway. […] To test this, caspase 3/7 activity was measured in SiHa cells following TRAIL, cisplatin and doxorubicin treatment in the presence or absence of myricetin or spinacine.
Cells were plated into 96-well plates at a density of 2×10^4 cells per well and incubated overnight. […] Caspase 3/7 activity was measured using the […] for caspase 3/7 activity (Promega, Fitchburg, Wis., USA) following the manufacturer's instructions. […] The resulting difference was expressed as a percentage of the caspase activity of the untreated cells.

| Structure (SMILES) | sensitivity of SiHa cells to doxorubicin and cisplatin (in words) (SiHa cells) | caspase 3/7 activity when combined with TRAIL (in words) [1] |
| --- | --- | --- |
| O=C(O)C1Cc2[nH]cnc2CN1 (stereo not shown) [Compound 5, 4,5,6,7-Tetrahydro-1H-imidazo(4,5-c)pyridine-6-carboxylic acid] | increased the sensitivity | increased significantly |
| O=c1c(O)c(-c2cc(O)c(O)c(O)c2)oc2cc(O)cc(O)c12 [Myricetin, reference compound] | increased the sensitivity | increased significantly |
